Source: patent publication US20250186558A1, “FORMULATIONS COMPRISING ACID-NEUTRALIZING POLYMER FOR ORAL ADMINISTRATION OF ACTIVE AGENTS” (Entera Bio Ltd., priority 2022, published 2025)
Values belong to the compound of their own block, whether it stands above or below them.

How the values were obtained:
[1] = test system: pepsin; assay: Effect of pH on proteolysis of hPTH(1-34) by pepsin; type: in vitro ADME; settings: 37° C., 3 minutes, media pH 2, 4, 5, 6, 7
Procedure: The effect of pH on peptide proteolysis by pepsin was determined by incubating 13.5 µg/ml human parathyroid hormone (1-34) (hPTH(1-34)) with 150 µg/ml pepsin, at various pH values, and determining the percentage of hPTH(1-34) which remained. The amount of hPTH(1-34) remaining upon addition to 150 µg/ml pepsin at 37° C. was determined in media with different pH values, followed by immediate (10 second) vortex and centrifugation for 3 minutes at 4° C., 4000 RCF. The following media were used: simulated gastric fluid (pH 2), prepared from 0.01 M HCl and NaCl; phthalate buffer (pH 4 or 5); and phosphate buffer (pH 6 or 7).

[2] = pH upon addition of test substance to 0.1 M HCl solution (pH 1.2), pH meter; type: physicochemical
Procedure: The solution pH was determined using an MP-103 pH-meter (MRC, Israel) equipped with ELC-10-00 electrode (MRC, Israel) or with a thin electrode HI1083 (HANNA instruments Inc.), shortly after dissolution and up to 26 hours later in order to ensure that the pH remained stable. The highest pH value obtained during the experimental time period was recorded in order to compare the acid-neutralizing capacity of each substance.
SNAC and the basic polymers sodium alginate, sodium carboxymethylcellulose in non-crosslinked (Na-CMC) and crosslinked (croscarmellose sodium, CCS) forms, and sodium starch glycolate (SSG) were dissolved in various volumes of 0.1 M HCl solution (pH 1.2) at concentrations of 1, 2, 4, 10, 20, 50, 100 and 150 mg/ml, and the solution pH was determined using an MP-103 pH-meter (MRC, Israel) equipped with ELC-10-00 electrode (MRC, Israel), as described in the Materials and Methods section hereinabove.
In order to obtain a beneficial rise in pH with a reduced loss of the active form of the absorption enhancer, the effect of various concentrations of different polymers containing carboxylate groups (sodium alginate, sodium starch glycolate, sodium carboxymethylcellulose, and croscarmellose sodium) on pH upon addition to a 0.1 M HCl solution (pH 1.2) was also evaluated. FIG. 3A presents pH values determined using an MP-103 pH-meter (MRC, Israel) equipped with ELC-10-00 electrode (MRC, Israel) and FIG. 3B presents pH values determined using an MP-103 pH-meter (MRC, Israel) equipped with a thin electrode HI1083 (HANNA instruments Inc.).

[3] = Teduglutide plasma concentration after oral mini-tablets with SNAC and SSG in rats; type: in vivo, male Sprague-Dawley (SD) rats; settings: mini-tablets: 0.7 mg teduglutide (2.34 mg/Kg), 15 mg SNAC, 5.33 mg SSG; male SD rats, n=7
Procedure: A formulation was prepared with 0.7 mg teduglutide (2.34 mg/Kg), 15 mg SNAC, 0.2 mg stearate and 5.33 mg SSG. […] Afterwards, mini-tablets were prepared from the mixes using a 2 mm punch and die set at 1 ton/cm^2.
The study was conducted in 7 male Sprague-Dawley (SD) rats weighing about 299 grams (290-320 grams). Animals were deprived of food 12-15 hours prior to administration. Water supply was removed one hour before administration and returned one hour post-administration. The mini-tablets were administered by a flexible intragastric gavage with a tip adapted for solid dosage forms administration, without the aid of water.

Structure (SMILES): CC[C@H](C)[C@H](NC(=O)[C@H](CCC(=O)O)NC(=O)[C@H](CO)NC(=O)[C@@H](NC(=O)[C@@H](N)CO)C(C)C)C(=O)N[C@@H](CCC(N)=O)C(=O)N[C@@H](CC(C)C)C(=O)N[C@@H](CCSC)C(=O)N[C@@H](Cc1cnc[nH]1)C(=O)N[C@@H](CC(N)=O)C(=O)N[C@@H](CC(C)C)C(=O)NCC(=O)N[C@@H](CCCCN)C(=O)N[C@@H](Cc1cnc[nH]1)C(=O)N[C@@H](CC(C)C)C(=O)N[C@@H](CC(N)=O)C(=O)N[C@@H](CO)C(=O)N[C@@H](CCSC)C(=O)N[C@@H](CCC(=O)O)C(=O)N[C@@H](CCCN=C(N)N)C(=O)N[C@H](C(=O)N[C@@H](CCC(=O)O)C(=O)N[C@@H](Cc1c[nH]c2ccccc12)C(=O)N[C@@H](CC(C)C)C(=O)N[C@@H](CCCN=C(N)N)C(=O)N[C@@H](CCCCN)C(=O)N[C@@H](CCCCN)C(=O)N[C@@H](CC(C)C)C(=O)N[C@@H](CCC(N)=O)C(=O)N[C@@H](CC(=O)O)C(=O)N[C@H](C(=O)N[C@@H](Cc1cnc[nH]1)C(=O)N[C@@H](CC(N)=O)C(=O)N[C@@H](Cc1ccccc1)C(=O)O)C(C)C)C(C)C [hPTH(1-34)]
proteolysis of hPTH(1-34) by pepsin as a function of pH [1]: inhibited when the pH increased to about pH 6 or higher

pH 5 minutes after dissolution ([2]; 10 mg/ml SNAC added to HCl solution (pH 1.2)): about 1.5 | pH 5 minutes after dissolution ([2]; 20 mg/ml SNAC added to HCl solution (pH 1.2)): 6.5 | pH 5 minutes after dissolution ([2]; 100 mg/ml SNAC added to HCl solution (pH 1.2)): about 7.5
Structure (SMILES): O=C(O)CCCCCCCNC(=O)c1ccccc1O [SNAC, sodium 8-N-(2-hydroxybenzoyl)aminocaprylate]

Structure (SMILES): CC[C@H](C)[C@H](NC(=O)[C@H](Cc1ccccc1)NC(=O)[C@H](CC(=O)O)NC(=O)[C@H](CCCNC(=N)N)NC(=O)[C@H](C)NC(=O)[C@H](C)NC(=O)[C@H](CC(C)C)NC(=O)[C@H](CC(N)=O)NC(=O)[C@H](CC(=O)O)NC(=O)[C@H](CC(C)C)NC(=O)[C@@H](NC(=O)[C@@H](NC(=O)[C@H](CC(N)=O)NC(=O)[C@H](CCSC)NC(=O)[C@H](CCC(=O)O)NC(=O)[C@H](CC(=O)O)NC(=O)[C@H](CO)NC(=O)[C@H](Cc1ccccc1)NC(=O)[C@H](CO)NC(=O)CNC(=O)[C@H](CC(=O)O)NC(=O)CNC(=O)[C@@H](N)Cc1c[nH]cn1)[C@@H](C)O)[C@@H](C)CC)C(=O)N[C@@H](CC(N)=O)C(=O)N[C@@H](Cc1c[nH]c2ccccc12)C(=O)N[C@@H](CC(C)C)C(=O)N[C@H](C(=O)N[C@@H](CCC(N)=O)C(=O)N[C@H](C(=O)N[C@@H](CCCCN)C(=O)N[C@H](C(=O)N[C@H](C(=O)N[C@@H](CC(=O)O)C(=O)O)[C@@H](C)O)[C@@H](C)CC)[C@@H](C)O)[C@@H](C)CC [teduglutide]
teduglutide plasma concentrations as a function of time after oral administration [3]: enable oral delivery of teduglutide
